Measured values as given in ChEMBL document CHEMBL5724806, “Unraveling interindividual differences and functional consequences of gut microbial metabolism of immunosuppressants” (2024).

What was measured:
Type in all cases: ADME
[1] = The drug is tested on Bifidobacterium adolescentis strain: DSM20083 for biotransformation under anaerobic condition. The drug concentrations were measured over 6 timepoints collected between 0 and 12 hours of incubation by liquid-chromatography-coupled mass spectrometry (LC–MS); design: dose 5 uM, timepoint 0, 1.5, 3, 6, 9, 12 hours; conditions: 5 µM
[2] = The drug is tested on Collinsella aerofaciens strain: DSM3979 for biotransformation under anaerobic condition. The drug concentrations were measured over 6 timepoints collected between 0 and 12 hours of incubation by liquid-chromatography-coupled mass spectrometry (LC–MS); design: dose 5 uM, timepoint 0, 1.5, 3, 6, 9, 12 hours; conditions: 5 µM
[3] = The drug is tested on Parabacteroides distasonis strain: DSM20701 for biotransformation under anaerobic condition. The drug concentrations were measured over 6 timepoints collected between 0 and 12 hours of incubation by liquid-chromatography-coupled mass spectrometry (LC–MS); design: dose 5 uM, timepoint 0, 1.5, 3, 6, 9, 12 hours; conditions: 5 µM
[4] = The drug is tested on Blautia hansenii strain: DSM20583 for biotransformation under anaerobic condition. The drug concentrations were measured over 6 timepoints collected between 0 and 12 hours of incubation by liquid-chromatography-coupled mass spectrometry (LC–MS); design: dose 5 uM, timepoint 0, 1.5, 3, 6, 9, 12 hours; conditions: 5 µM
[5] = The drug is tested on Clostridium bolteae strain: DSM15670 for biotransformation under anaerobic condition. The drug concentrations were measured over 6 timepoints collected between 0 and 12 hours of incubation by liquid-chromatography-coupled mass spectrometry (LC–MS); design: dose 5 uM, timepoint 0, 1.5, 3, 6, 9, 12 hours; conditions: enterocloster bolteae, 5 µM
[6] = The drug is tested on Clostridium scindens strain: DSM5676 for biotransformation under anaerobic condition. The drug concentrations were measured over 6 timepoints collected between 0 and 12 hours of incubation by liquid-chromatography-coupled mass spectrometry (LC–MS); design: dose 5 uM, timepoint 0, 1.5, 3, 6, 9, 12 hours; conditions: 5 µM
[7] = The drug is tested on Faecalibacterium prausnitzii strain: DSM17677 for biotransformation under anaerobic condition. The drug concentrations were measured over 6 timepoints collected between 0 and 12 hours of incubation by liquid-chromatography-coupled mass spectrometry (LC–MS); design: dose 5 uM, timepoint 0, 1.5, 3, 6, 9, 12 hours; conditions: faecalibacterium duncaniae, 5 µM
[8] = The drug is tested on Lactobacillus gasseri strain: DSM20243 for biotransformation under anaerobic condition. The drug concentrations were measured over 6 timepoints collected between 0 and 12 hours of incubation by liquid-chromatography-coupled mass spectrometry (LC–MS); design: dose 5 uM, timepoint 0, 1.5, 3, 6, 9, 12 hours; conditions: 5 µM
[9] = The drug is tested on Lactobacillus paracasei strain: ATCC27092 for biotransformation under anaerobic condition. The drug concentrations were measured over 6 timepoints collected between 0 and 12 hours of incubation by liquid-chromatography-coupled mass spectrometry (LC–MS); design: dose 5 uM, timepoint 0, 1.5, 3, 6, 9, 12 hours; conditions: lacticaseibacillus paracasei, 5 µM
[10] = The drug is tested on Ruminococcus gnavus strain: ATCC29149 for biotransformation under anaerobic condition. The drug concentrations were measured over 6 timepoints collected between 0 and 12 hours of incubation by liquid-chromatography-coupled mass spectrometry (LC–MS); design: dose 5 uM, timepoint 0, 1.5, 3, 6, 9, 12 hours; conditions: mediterraneibacter gnavus, 5 µM
[11] = The drug is tested on Streptococcus anginosus strain: DSM20563 for biotransformation under anaerobic condition. The drug concentrations were measured over 6 timepoints collected between 0 and 12 hours of incubation by liquid-chromatography-coupled mass spectrometry (LC–MS); design: dose 5 uM, timepoint 0, 1.5, 3, 6, 9, 12 hours; conditions: 5 µM
[12] = The drug is tested on Streptococcus mitis strain: DSM12643 for biotransformation under anaerobic condition. The drug concentrations were measured over 6 timepoints collected between 0 and 12 hours of incubation by liquid-chromatography-coupled mass spectrometry (LC–MS); design: dose 5 uM, timepoint 0, 1.5, 3, 6, 9, 12 hours; conditions: 5 µM
[13] = The drug is tested on Streptococcus sanguinis strain: DSM20567 for biotransformation under anaerobic condition. The drug concentrations were measured over 6 timepoints collected between 0 and 12 hours of incubation by liquid-chromatography-coupled mass spectrometry (LC–MS); design: dose 5 uM, timepoint 0, 1.5, 3, 6, 9, 12 hours; conditions: 5 µM
[14] = The drug is tested on Actinomyces graevenitzii strain: DSM15540 for biotransformation under microaerobic condition. The drug concentrations were measured over 6 timepoints collected between 0 and 12 hours of incubation by liquid-chromatography-coupled mass spectrometry (LC–MS); design: dose 5 uM, timepoint 0, 1.5, 3, 6, 9, 12 hours; conditions: 5 µM
[15] = The drug is tested on Actinomyces naeslundi strain: DSM43013 for biotransformation under microaerobic condition. The drug concentrations were measured over 6 timepoints collected between 0 and 12 hours of incubation by liquid-chromatography-coupled mass spectrometry (LC–MS); design: dose 5 uM, timepoint 0, 1.5, 3, 6, 9, 12 hours; conditions: actinomyces naeslundii, 5 µM
[16] = The drug is tested on Gemella morbillorum strain: DSM20572 for biotransformation under microaerobic condition. The drug concentrations were measured over 6 timepoints collected between 0 and 12 hours of incubation by liquid-chromatography-coupled mass spectrometry (LC–MS); design: dose 5 uM, timepoint 0, 1.5, 3, 6, 9, 12 hours; conditions: 5 µM
[17] = The drug is tested on Lactobacillus fermentum strain: DSM20052 for biotransformation under microaerobic condition. The drug concentrations were measured over 6 timepoints collected between 0 and 12 hours of incubation by liquid-chromatography-coupled mass spectrometry (LC–MS); design: dose 5 uM, timepoint 0, 1.5, 3, 6, 9, 12 hours; conditions: limosilactobacillus fermentum, 5 µM
[18] = The drug is tested on Lactobacillus gasseri strain: DSM20243 for biotransformation under microaerobic condition. The drug concentrations were measured over 6 timepoints collected between 0 and 12 hours of incubation by liquid-chromatography-coupled mass spectrometry (LC–MS); design: dose 5 uM, timepoint 0, 1.5, 3, 6, 9, 12 hours; conditions: 5 µM
[19] = The drug is tested on Streptococcus mitis strain: DSM12643 for biotransformation under microaerobic condition. The drug concentrations were measured over 6 timepoints collected between 0 and 12 hours of incubation by liquid-chromatography-coupled mass spectrometry (LC–MS); design: dose 5 uM, timepoint 0, 1.5, 3, 6, 9, 12 hours; conditions: 5 µM
[20] = The drug is tested on the gut metagenome community of A-01 with ENA study accession number: PRJEB31790 for biotransformation under anaerobic condition. The drug concentrations were measured over 7 timepoints collected between 0 and 12 hours of incubation by liquid-chromatography-coupled mass spectrometry (LC–MS); design: dose 5 uM, timepoint 0, 0.75, 1.5, 3, 6, 9, 12 hours; conditions: 5 µM
[21] = The drug is tested on the gut metagenome community of A-03 with ENA study accession number: PRJEB31790 for biotransformation under anaerobic condition. The drug concentrations were measured over 7 timepoints collected between 0 and 12 hours of incubation by liquid-chromatography-coupled mass spectrometry (LC–MS); design: dose 5 uM, timepoint 0, 0.75, 1.5, 3, 6, 9, 12 hours; conditions: 5 µM
[22] = The drug is tested on the gut metagenome community of A-09 with ENA study accession number: PRJEB31790 for biotransformation under anaerobic condition. The drug concentrations were measured over 7 timepoints collected between 0 and 12 hours of incubation by liquid-chromatography-coupled mass spectrometry (LC–MS); design: dose 5 uM, timepoint 0, 0.75, 1.5, 3, 6, 9, 12 hours; conditions: 5 µM
[23] = The drug is tested on the gut metagenome community of A-10 with ENA study accession number: PRJEB31790 for biotransformation under anaerobic condition. The drug concentrations were measured over 7 timepoints collected between 0 and 12 hours of incubation by liquid-chromatography-coupled mass spectrometry (LC–MS); design: dose 5 uM, timepoint 0, 0.75, 1.5, 3, 6, 9, 12 hours; conditions: 5 µM
[24] = The drug is tested on the gut metagenome community of T-01 with ENA study accession number: PRJEB31790 for biotransformation under anaerobic condition. The drug concentrations were measured over 7 timepoints collected between 0 and 12 hours of incubation by liquid-chromatography-coupled mass spectrometry (LC–MS); design: dose 5 uM, timepoint 0, 0.75, 1.5, 3, 6, 9, 12 hours; conditions: 5 µM
[25] = The drug is tested on the gut metagenome community of P-01 with ENA study accession number: PRJEB31790 for biotransformation under microaerobic condition. The drug concentrations were measured over 7 timepoints collected between 0 and 12 hours of incubation by liquid-chromatography-coupled mass spectrometry (LC–MS); design: dose 5 uM, timepoint 0, 0.75, 1.5, 3, 6, 9, 12 hours; conditions: 5 µM
[26] = The drug is tested on the gut metagenome community of P-03 with ENA study accession number: PRJEB31790 for biotransformation under microaerobic condition. The drug concentrations were measured over 7 timepoints collected between 0 and 12 hours of incubation by liquid-chromatography-coupled mass spectrometry (LC–MS); design: dose 5 uM, timepoint 0, 0.75, 1.5, 3, 6, 9, 12 hours; conditions: 5 µM

SMILES | Bacterial Biotransformation [1] | Bacterial Biotransformation [2] | Bacterial Biotransformation [3] | Bacterial Biotransformation [4] | Bacterial Biotransformation [5] | Bacterial Biotransformation [6] | Bacterial Biotransformation [7] | Bacterial Biotransformation [8] | Bacterial Biotransformation [9] | Bacterial Biotransformation [10] | Bacterial Biotransformation [11] | Bacterial Biotransformation [12] | Bacterial Biotransformation [13] | Bacterial Biotransformation [14] | Bacterial Biotransformation [15] | Bacterial Biotransformation [16] | Bacterial Biotransformation [17] | Bacterial Biotransformation [18] | Bacterial Biotransformation [19] | Bacterial Biotransformation [20] | further results
Cn1cnc([N+](=O)[O-])c1Sc1ncnc2nc[nH]c12 [AZATHIOPRINE] | Compound metabolized | Compound metabolized | Compound metabolized | Compound NOT metabolized | Compound NOT metabolized | Compound metabolized | Compound metabolized | Compound NOT metabolized | Compound metabolized | Compound metabolized | Compound metabolized | Compound metabolized | Compound metabolized | Compound metabolized | Compound NOT metabolized | Compound NOT metabolized | Compound NOT metabolized | Compound NOT metabolized | Compound NOT metabolized | Compound NOT metabolized | Bacterial Biotransformation [21]: Compound metabolized; Bacterial Biotransformation [22]: Compound metabolized; Bacterial Biotransformation [23]: Compound NOT metabolized; Bacterial Biotransformation [24]: Compound metabolized; Bacterial Biotransformation [25]: Compound NOT metabolized; Bacterial Biotransformation [26]: Compound NOT metabolized
C[C@H]1C[C@H]2[C@@H]3CCC4=CC(=O)C=C[C@]4(C)[C@@]3(F)[C@@H](O)C[C@]2(C)[C@@]1(O)C(=O)CO [BETAMETHASONE] | Compound NOT metabolized | Compound NOT metabolized | Compound NOT metabolized | Compound NOT metabolized | Compound NOT metabolized | Compound metabolized | Compound NOT metabolized | Compound NOT metabolized | Compound NOT metabolized | Compound NOT metabolized | Compound NOT metabolized | Compound NOT metabolized | Compound NOT metabolized | Compound NOT metabolized | Compound NOT metabolized | Compound NOT metabolized | Compound NOT metabolized | Compound NOT metabolized | Compound NOT metabolized | Compound NOT metabolized | Bacterial Biotransformation [21]: Compound metabolized; Bacterial Biotransformation [22]: Compound metabolized; Bacterial Biotransformation [23]: Compound NOT metabolized; Bacterial Biotransformation [24]: Compound NOT metabolized; Bacterial Biotransformation [25]: Compound NOT metabolized; Bacterial Biotransformation [26]: Compound NOT metabolized
CCCC1O[C@@H]2C[C@H]3[C@@H]4CCC5=CC(=O)C=C[C@]5(C)[C@H]4[C@@H](O)C[C@]3(C)[C@]2(C(=O)CO)O1 (stereo partly drawn) [BUDESONIDE] | Compound NOT metabolized | Compound NOT metabolized | Compound NOT metabolized | Compound NOT metabolized | Compound NOT metabolized | Compound NOT metabolized | Compound NOT metabolized | Compound NOT metabolized | Compound NOT metabolized | Compound NOT metabolized | Compound NOT metabolized | Compound NOT metabolized | Compound NOT metabolized | Compound NOT metabolized | Compound NOT metabolized | Compound NOT metabolized | Compound NOT metabolized | Compound NOT metabolized | Compound NOT metabolized | Compound NOT metabolized | Bacterial Biotransformation [21]: Compound NOT metabolized; Bacterial Biotransformation [22]: Compound metabolized; Bacterial Biotransformation [23]: Compound NOT metabolized; Bacterial Biotransformation [24]: Compound metabolized; Bacterial Biotransformation [25]: Compound NOT metabolized; Bacterial Biotransformation [26]: Compound NOT metabolized
